Measurements published in the supplement of paper PMC10883282.

Assays:
Assay in all cases: relative viability vs DMSO control (72 h) (fraction); higher = more viable cells
G401 = test system: G401
How it was run: (§1)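 Relative viability was measured with ATPLite and expressed as percent growth, averaged across up to triplicate wells. Sarcoma cell lines had been seeded in 384-well plates to reach 80–90% confluence, dosed after 24 h, and incubated 72 h at 37 °C, 5% CO2. All data were rescaled on a scale where 1 is full and 0 is none.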

HT1080 = test system: HT1080
How it was run: as §1

KHOS-240S = test system: KHOS-240S
How it was run: as §1

MES-SA = test system: MES-SA
How it was run: as §1

RD-ES = test system: RD-ES
How it was run: as §1

RD = test system: RD
How it was run: as §1

SK-ES-1 = test system: SK-ES-1
How it was run: as §1

SK-LMS-1 = test system: SK-LMS-1
How it was run: as §1

SW1353 = test system: SW1353
How it was run: as §1

SW982 = test system: SW982
How it was run: as §1

SYO-1 = test system: SYO-1
How it was run: as §1

VA-ES-BJ = test system: VA-ES-BJ
How it was run: as §1

Cc1cn(-c2cc(NC(=O)c3ccc(C)c(Nc4nccc(-c5cccnc5)n4)c3)cc(C(F)(F)F)c2)cn1 [Nilotinib]
Conditions	relative viability
G401, 0.00017 µM	0.944
G401, 0.00051 µM	0.963
G401, 0.00152 µM	0.968
G401, 0.00457 µM	0.963
G401, 0.01372 µM	0.979
G401, 0.04115 µM	0.982
G401, 0.1235 µM	0.995
G401, 0.3704 µM	0.923
G401, 1.111 µM	0.865
G401, 3.333 µM	0.795
G401, 10 µM	0.737
HT1080, 0.00017 µM	1.02
HT1080, 0.00051 µM	0.997
HT1080, 0.00152 µM	0.964
HT1080, 0.00457 µM	1.01
HT1080, 0.01372 µM	1.04
HT1080, 0.04115 µM	0.991
HT1080, 0.1235 µM	1.03
HT1080, 0.3704 µM	1
HT1080, 1.111 µM	0.993
HT1080, 3.333 µM	1.02
HT1080, 10 µM	0.889
KHOS-240S, 0.00017 µM	1.04
KHOS-240S, 0.00051 µM	1.02
KHOS-240S, 0.00152 µM	1.03
KHOS-240S, 0.00457 µM	1.02
KHOS-240S, 0.01372 µM	1.03
KHOS-240S, 0.04115 µM	1.01
KHOS-240S, 0.1235 µM	0.999
KHOS-240S, 0.3704 µM	0.998
KHOS-240S, 1.111 µM	0.907
KHOS-240S, 3.333 µM	0.847
KHOS-240S, 10 µM	0.658
MES-SA, 0.00017 µM	0.882
MES-SA, 0.00051 µM	0.867
MES-SA, 0.00152 µM	0.874
MES-SA, 0.00457 µM	0.875
MES-SA, 0.01372 µM	0.88
MES-SA, 0.04115 µM	0.94
MES-SA, 0.1235 µM	0.938
MES-SA, 0.3704 µM	0.93
MES-SA, 1.111 µM	0.891
MES-SA, 3.333 µM	0.659
MES-SA, 10 µM	0.594
RD, 0.00017 µM	1.06
RD, 0.00051 µM	1.07
RD, 0.00152 µM	1.09
RD, 0.00457 µM	1.08
RD, 0.01372 µM	1.11
RD, 0.04115 µM	1.12
RD, 0.1235 µM	1.11
RD, 0.3704 µM	1.07
RD, 1.111 µM	0.898
RD, 3.333 µM	0.731
RD, 10 µM	0.6531
RD-ES, 0.00017 µM	0.934
RD-ES, 0.00051 µM	0.919
RD-ES, 0.00152 µM	0.927
RD-ES, 0.00457 µM	0.938
RD-ES, 0.01372 µM	0.925
RD-ES, 0.04115 µM	0.936
RD-ES, 0.1235 µM	0.912
RD-ES, 0.3704 µM	0.883
RD-ES, 1.111 µM	0.826
RD-ES, 3.333 µM	0.702
RD-ES, 10 µM	0.714
SK-ES-1, 0.00017 µM	0.966
SK-ES-1, 0.00051 µM	0.958
SK-ES-1, 0.00152 µM	0.951
SK-ES-1, 0.00457 µM	0.919
SK-ES-1, 0.01372 µM	0.954
SK-ES-1, 0.04115 µM	0.975
SK-ES-1, 0.1235 µM	0.997
SK-ES-1, 0.3704 µM	0.908
SK-ES-1, 1.111 µM	0.788
SK-ES-1, 3.333 µM	0.55
SK-ES-1, 10 µM	0.484
SK-LMS-1, 0.00017 µM	0.953
SK-LMS-1, 0.00051 µM	0.983
SK-LMS-1, 0.00152 µM	1.01
SK-LMS-1, 0.00457 µM	1.03
SK-LMS-1, 0.01372 µM	1.02
SK-LMS-1, 0.04115 µM	1.05
SK-LMS-1, 0.1235 µM	1.11
SK-LMS-1, 0.3704 µM	1.12
SK-LMS-1, 1.111 µM	1.16
SK-LMS-1, 3.333 µM	0.978
SK-LMS-1, 10 µM	0.965
SW982, 0.00017 µM	0.977
SW982, 0.00051 µM	0.983
SW982, 0.00152 µM	0.957
SW982, 0.00457 µM	0.974
SW982, 0.01372 µM	0.988
SW982, 0.04115 µM	0.994
SW982, 0.1235 µM	0.987
SW982, 0.3704 µM	0.998
SW982, 1.111 µM	0.973
SW982, 3.333 µM	0.902
SW982, 10 µM	0.727
SW1353, 0.00017 µM	0.933
SW1353, 0.00051 µM	0.951
SW1353, 0.00152 µM	0.935
SW1353, 0.00457 µM	0.967
SW1353, 0.01372 µM	0.969
SW1353, 0.04115 µM	1.01
SW1353, 0.1235 µM	1.05
SW1353, 0.3704 µM	1.09
SW1353, 1.111 µM	1.08
SW1353, 3.333 µM	0.994
SW1353, 10 µM	0.846
SYO-1, 0.00017 µM	0.904
SYO-1, 0.00051 µM	0.868
SYO-1, 0.00152 µM	0.899
SYO-1, 0.00457 µM	0.865
SYO-1, 0.01372 µM	0.818
SYO-1, 0.04115 µM	0.84
SYO-1, 0.1235 µM	0.802
SYO-1, 0.3704 µM	0.6513
SYO-1, 1.111 µM	0.598
SYO-1, 3.333 µM	0.522
SYO-1, 10 µM	0.446
VA-ES-BJ, 0.00017 µM	1.05
VA-ES-BJ, 0.00051 µM	1.04
VA-ES-BJ, 0.00152 µM	1.04
VA-ES-BJ, 0.00457 µM	1.05
VA-ES-BJ, 0.01372 µM	1.05
VA-ES-BJ, 0.04115 µM	1.06
VA-ES-BJ, 0.1235 µM	1.08
VA-ES-BJ, 0.3704 µM	1.1
VA-ES-BJ, 1.111 µM	1.1
VA-ES-BJ, 3.333 µM	0.989
VA-ES-BJ, 10 µM	0.679
